Measured values reported in US20220211861A1, “DRUG CONJUGATES AND METHODS OF USING SAME” (The Board of Trustees of the Leland Staford Junior …, priority 2019, published 2022).
Where no end group is shown, it is not given here.

Tests used:
[1] = target: integrin receptors on U87MG glioblastoma cells; experiment: flow cytometry, direct binding of AF488-labelled protein to U87MG cells, 3 h at 4 C
U87MG hip xenografts = experiment: Therapeutic efficacy study, once weekly for four weeks, tumors implanted with Matrigel; assay type: in vivo, Nu/Nu mice; conditions: once weekly for 4 weeks
Experimental: To further investigate each compound, several changes were made to the experimental design. Because of the KDC's rapid systemic clearance, a significant portion of the injected dose is likely lost and the ˜0.6 mg/kg dose was therefore increased substantially. Because dosages for chemotherapeutics are conventionally determined as mass of chemotherapeutic per patient body surface area, a more clinically relevant comparison of equal mass was selected over an equimolar comparison. Next, a once-per-week dosing regimen was selected to coincide with realistic clinical dosing considerations. Finally, tumors were implanted with Matrigel matrix to increase tumor growth and with only 2.5×10^6 cells per injection to decrease initial tumor necrosis. Mice bearing U87MG hip xenografts were equally distributed into the following treatment groups with intravenous injections given once weekly for 4 weeks: KDC, KFDC, KADC, unconjugated proteins, or a PBS control. Each drug conjugate was also evaluated at a low dose and a high dose.
For tumor cell implantation, female Nu/Nu mice (Charles River Laboratory) were anesthetized with 2.5% isoflurane by inhalation with a flow rate of 1 L/min. A volume of 200 μL of 50/50 PBS/Matrigel (Corning), containing 2.5×10^6 U87MG cells, was injected subcutaneously into the right flank. Tumors were allowed to grow for 7 days until reaching a size of approximately 35 mm^2. For therapeutic efficacy studies, mice were binned into experimental groups to ensure equivalent average tumor sizes and starting body weights across all groups.
Mice bearing U87MG flank xenografts, as described above, were injected intravenously with PBS, KDC, KFDC, KADC, or controls proteins. Treatments were administered once per week for four weeks. Tumors were measured three times per week using digital calipers and animal weights were recorded on each dosing day to monitor for potential weight loss as a measure of compound toxicity. Tumor area was calculated as the longest axis of the tumor multiplied by the perpendicular axis. Euthanasia criteria were defined as a tumor area greater than 150 mm^2 or a loss of 20% body weight.

U87MG cells [2] = experiment: Indirect (competition) binding assay displacing Alexa Fluor 488-labeled knottin; conditions: competing off 1 nM AF488-2.5F on U87MG cells
Experimental: (§1) The binding affinity of the constructs described in Example 1 were measured using U87MG glioblastoma cells. Drug-free protein affinities were measured directly using Alexa Fluor 488-conjugaed proteins and drug conjugates were measured via a competition binding assay displacing Alexa Fluor 488-labeled K. All constructs tested bound to U87MG cells with low-nanomolar affinity (FIG. 9A-B).
(§2) U87MG cells were detached using Enzyme-Free Cell Dissociation Buffer (Gibco). Next, 4×10^4 cells were incubated with 1 nM of Alexa Fluor 488 labeled knottin as a competitor and varying concentrations (0.01-500 nM) of KDC, KFDC, or KADC in IBB for 3 h at 4° C. to minimize internalization. Cells were pelleted and washed twice with 800 μL of PBSA (phosphate buffered saline containing 0.1% bovine serum albumin) and the fluorescence of remaining surface-bound protein was measured by flow cytometry using a Guava EasyCyte 8HT instrument (EMD Millipore). Resulting data were evaluated using FlowJo software (TreeStar Inc) and equilibrium dissociation constants (Kd) were determined using Prism software (GraphPad). Error bars represent the standard deviation of experiments performed in triplicate.

U87MG cells [3] = experiment: Direct binding of Alexa Fluor 488-labeled proteins to U87MG cells (flow cytometry); conditions: direct binding of AF488-labeled protein to U87MG cells, 3 h at 4° C.
Experimental: as §1
as §2, with “varying concentrations (0.01-200 nM)” for “1 nM”, “proteins in Integrin Binding Buffer (IBB; 25 mM Tris pH 7.4, 150 mM NaCl, 2 mM CaCl2), 1 mM MgCl2, 1 mM MnCl2,” for “knottin as a competitor”, “0.1% bovine serum albumin (BSA))” for “varying concentrations (0.01-500 nM) of KDC, KFDC, or KADC in IBB”

U87MG cells [4] = experiment: Measurement of cellular internalization of AF488-labeled proteins; assay type: cell-based; conditions: AF488-labeled protein, 37° C., 4 h, surface signal quenched
Experimental: The cleavage of the Val-Cit-PAB linker and the subsequent release and mechanism of action of MMAE are dependent upon intracellular delivery. Thus, it was important to validate that each construct internalized efficiently. Internalization was measured by incubating Alexa Fluor 488-conjugated proteins with cells at 37° C. After a 4 h incubation, surface-bound protein was quenched using an anti-AF488 antibody, that binds any exposed fluorophores.
U87MG cells were seeded in 24-well plates (Corning) at a density of 5×10^4 cells per well. After allowing cells to settle for >4 h, media was replaced with fresh media containing 200 nM of Alexa Fluor 488-labeled proteins and supplemented with 1 mM MnCl2. Cells were then incubated at 37° C. for 4 h. Cells were washed with 500 μL of PBS and detached using 20 μL of 0.05% trypsin/EDTA. After neutralizing trypsin and transferring each well into an Eppendorf tube, cells were washed with 800 μL of cold PBSA. Next, cells were pelleted and resuspended on ice in 50 μL of a 1:200 dilution of anti-Alexa Fluor 488 antibody (Invitrogen) to quench surface-bound protein. Cells were washed again with 800 μL of PBSA and the fluorescence of internalized protein was measured by flow cytometry as described above.

Kd [1] [nM]	Molecule	tumor growth with unconjugated protein (U87MG hip xenografts)	Ki (U87MG cells [2]) [nM]	Kd (U87MG cells [3]) [nM]	internalization (U87MG cells [4])
2.5	knottin-Fc fusion (KFc): EETI 2.5F genetically fused to a human IgG1 Fc domain, Alexa Fluor 488-labeled	–	–	–	–
–	KFc: EETI 2.5F genetically fused to a human IgG1 Fc domain (GCPRPRGDNPPLTCSQDSDCLAGCVCGPNGFCG; ends and bridges not checked; also: fused to human IgG1 Fc domain (dimerising))	indistinguishable from PBS control mice	1.2	2.5	from least to greatest, K, KFc, then KAb
2.3	GCPRPRGDNPPLTCSQDSDCLAGCVCGPNGFCG (peptide, part only; not given: carrier IgG1 antibody chains, part only, cysteine pairing not given here; also: genetic fusion to N-terminus of full-length human IgG1 antibody, Alexa Fluor 488 label, site not given here)	–	–	–	–
